Legend:
blackgrass = experiment: Test B pre/postemergence blackgrass; type: in vivo, Alopecurus myosuroides
Summary of the method: (§1)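 Herbicidal effect was estimated by eye on a ten-point control scale after plants spent twelve to sixteen days in a greenhouse following soil or foliar treatment. Foliar sprays targeted plants at one to four leaves; all doses were formulated in a non-phytotoxic solvent with surfactant.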

surinam grass = experiment: Test B pre/postemergence surinam grass; type: in vivo, Brachiaria decumbens
Summary of the method: as §1

cocklebur = experiment: Test B pre/postemergence cocklebur; type: in vivo, Xanthium strumarium
Summary of the method: as §1

corn = experiment: Test B pre/postemergence corn; type: in vivo, Zea mays
Summary of the method: as §1

crabgrass = experiment: Test B pre/postemergence crabgrass; type: in vivo, Digitaria sanguinalis
Summary of the method: as §1

giant foxtail = experiment: Test B pre/postemergence giant foxtail; type: in vivo, Setaria faberii
Summary of the method: as §1

morningglory = experiment: Test B pre/postemergence morningglory; type: in vivo, Ipomoea hederacea
Summary of the method: as §1

pigweed = experiment: Test B pre/postemergence pigweed; type: in vivo, Amaranthus retroflexus
Summary of the method: as §1

rape = experiment: Test B pre/postemergence rape; type: in vivo, Brassica napus
Summary of the method: as §1

soybean = experiment: Test B pre/postemergence soybean; type: in vivo, Glycine max
Summary of the method: as §1

sugar beet = experiment: Test B pre/postemergence sugar beet; type: in vivo, Beta vulgaris
Summary of the method: as §1

velvetleaf = experiment: Test B pre/postemergence velvetleaf; type: in vivo, Abutilon theophrasti
Summary of the method: as §1

wheat = experiment: Test B pre/postemergence wheat; type: in vivo, Triticum aestivum
Summary of the method: as §1

wild oat = experiment: Test B pre/postemergence wild oat; type: in vivo, Avena fatua
Summary of the method: as §1

rice = experiment: Test B flood test rice; type: in vivo, Oryza sativa
Summary of the method: (§2)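 Flood test on plants grown to the 2-leaf stage; treated plants kept in greenhouse twelve to sixteen days, then visually rated against controls on a 0 (no effect) to 10 (complete control) scale.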

smallflower flatsedge = experiment: Test B flood test smallflower flatsedge; type: in vivo, Cyperus difformis
Summary of the method: as §2

[1] = Postemergence, Rate 250 g/ha, scale 0 to 10
[2] = Postemergence, Rate 500 g/ha, scale of 0 to 10 where 0 is no effect and 10 is complete control
[3] = Preemergence, Rate 62 g/ha, scale of 0 to 10 where 0 is no effect and 10 is complete control
[4] = Preemergence, Rate 125 g/ha, scale of 0 to 10 where 0 is no effect and 10 is complete control
[5] = Preemergence, Rate 250 g/ha, scale 0 to 10, 0 is no effect, 10 is complete control
[6] = Preemergence, Rate 500 g/ha, scale 0 to 10, 0 is no effect, 10 is complete control
[7] = Rate 62 g/ha, Postemergence, scale 0 to 10 (0 no effect, 10 complete control)
[8] = Rate 125 g/ha, Postemergence, scale 0 to 10, 0 is no effect, 10 is complete control
[9] = Rate 62 g/ha, flood test species, Pre-emergence, visual evaluation after twelve to sixteen days
[10] = Rate 125 g/ha, under heading Pre-emergence, flood test species, visual evaluation after twelve to sixteen days
[11] = Rate 250 g/ha, Pre-emergence (flood test species), scale 0 to 10, 0 is no effect, 10 is complete control
[12] = Rate 500 g/ha, Pre-emergence, flood test species, scale 0 to 10 (0 no effect, 10 complete control)

COC(C)n1c(=O)on(C(=O)N(c2ccccc2)C(C)C)c1=O (stereo not drawn) [Compound 441]
0: Blackgrass plant response rating (blackgrass; [1]) | Blackgrass plant response rating (blackgrass; [2]) | Plant response rating, Blackgrass (blackgrass; [3]) | Plant response rating, Blackgrass (blackgrass; [4]) | Blackgrass plant response rating (blackgrass; [5]) | Blackgrass plant response rating (blackgrass; [6]) | Blackgrass plant response rating (blackgrass; [7]) | Blackgrass plant response rating (blackgrass; [8]) | B. signalgrass plant response rating (surinam grass; Postemergence, Rate 250 g/ha, scale 0 to 10, 0 no effect, 10 complete control) | B. signalgrass plant response rating (surinam grass; [2]) | Plant response rating, B. signalgrass (surinam grass; [3]) | Plant response rating, B. signalgrass (surinam grass; [4]) | B. signalgrass plant response rating (surinam grass; [5]) | B. signalgrass plant response rating (surinam grass; [6]) | B. signalgrass plant response rating (surinam grass; [7]) | B. signalgrass plant response rating (surinam grass; [8]) | Cocklebur plant response rating (cocklebur; [1]) | Cocklebur plant response rating (cocklebur; [2]) | Plant response rating, Cocklebur (cocklebur; [3]) | Plant response rating, Cocklebur (cocklebur; [4]) | Cocklebur plant response rating (cocklebur; [5]) | Cocklebur plant response rating (cocklebur; [6]) | Cocklebur plant response rating (cocklebur; [7]) | Cocklebur plant response rating (cocklebur; [8]) | Corn plant response rating (corn; [1]) | Corn plant response rating (corn; [2]) | Plant response rating, Corn (corn; [3]) | Plant response rating, Corn (corn; [4]) | Corn plant response rating (corn; [5]) | Corn plant response rating (corn; [6]) | Corn plant response rating (corn; [7]) | Corn plant response rating (corn; [8]) | Crabgrass plant response rating (crabgrass; [1]) | Crabgrass plant response rating (crabgrass; [2]) | Plant response rating, Crabgrass (crabgrass; [3]) | Plant response rating, Crabgrass (crabgrass; [4]) | Crabgrass plant response rating (crabgrass; [5]) | Crabgrass plant response rating (crabgrass; [6]) | Crabgrass plant response rating (crabgrass; [7]) | Crabgrass plant response rating (crabgrass; [8]) | Giant foxtail plant response rating (giant foxtail; [1]) | Giant foxtail plant response rating (giant foxtail; [2]) | Plant response rating, Giant foxtail (giant foxtail; [3]) | Plant response rating, Giant foxtail (giant foxtail; [4]) | Giant foxtail plant response rating (giant foxtail; [5]) | Giant foxtail plant response rating (giant foxtail; [6]) | Giant foxtail plant response rating (giant foxtail; [7]) | Giant foxtail plant response rating (giant foxtail; [8]) | Morningglory plant response rating (morningglory; [1]) | Morningglory plant response rating (morningglory; [2]) | Plant response rating, Morningglory (morningglory; [3]) | Plant response rating, Morningglory (morningglory; [4]) | Morningglory plant response rating (morningglory; [5]) | Morningglory plant response rating (morningglory; [6]) | Morningglory plant response rating (morningglory; [7]) | Morningglory plant response rating (morningglory; [8]) | Redroot pigweed plant response rating (pigweed; [1]) | Redroot pigweed plant response rating (pigweed; [2]) | Plant response rating, Redroot pigweed (pigweed; [3]) | Plant response rating, Redroot pigweed (pigweed; [4]) | Redroot pigweed plant response rating (pigweed; [5]) | Redroot pigweed plant response rating (pigweed; [6]) | Redroot pigweed plant response rating (pigweed; [7]) | Redroot pigweed plant response rating (pigweed; [8]) | Rape plant response rating (rape; [1]) | Rape plant response rating (rape; [2]) | Plant response rating, Rape (rape; [3]) | Plant response rating, Rape (rape; [4]) | Rape plant response rating (rape; [5]) | Rape plant response rating (rape; [6]) | Rape plant response rating (rape; [7]) | Rape plant response rating (rape; [8]) | Soybean plant response rating (soybean; [1]) | Soybean plant response rating (soybean; [2]) | Plant response rating, Soybean (soybean; [3]) | Plant response rating, Soybean (soybean; [4]) | Soybean plant response rating (soybean; [5]) | Soybean plant response rating (soybean; [6]) | Soybean plant response rating (soybean; [7]) | Soybean plant response rating (soybean; [8]) | Sugarbeets plant response rating (sugar beet; [1]) | Sugarbeets plant response rating (sugar beet; [2]) | Plant response rating, Sugarbeets (sugar beet; [3]) | Plant response rating, Sugarbeets (sugar beet; [4]) | Sugarbeets plant response rating (sugar beet; [5]) | Sugarbeets plant response rating (sugar beet; [6]) | Sugarbeets plant response rating (sugar beet; [7]) | Sugarbeets plant response rating (sugar beet; [8]) | Velvetleaf plant response rating (velvetleaf; [1]) | Velvetleaf plant response rating (velvetleaf; [2]) | Plant response rating, Velvetleaf (velvetleaf; [3]) | Plant response rating, Velvetleaf (velvetleaf; [4]) | Velvetleaf plant response rating (velvetleaf; [5]) | Velvetleaf plant response rating (velvetleaf; [6]) | Velvetleaf plant response rating (velvetleaf; [7]) | Velvetleaf plant response rating (velvetleaf; [8]) | Wheat plant response rating (wheat; [1]) | Wheat plant response rating (wheat; [2]) | Plant response rating, Wheat (wheat; [3]) | Plant response rating, Wheat (wheat; [4]) | Wheat plant response rating (wheat; [5]) | Wheat plant response rating (wheat; [6]) | Wheat plant response rating (wheat; [7]) | Wheat plant response rating (wheat; [8]) | Wild oats plant response rating (wild oat; [1]) | Wild oats plant response rating (wild oat; [2]) | Plant response rating, Wild oats (wild oat; [3]) | Plant response rating, Wild oats (wild oat; [4]) | Wild oats plant response rating (wild oat; [5]) | Wild oats plant response rating (wild oat; [6]) | Wild oats plant response rating (wild oat; [7]) | Wild oats plant response rating (wild oat; [8]) | Plant response rating, Rice (0 to 10 scale, 0 is no effect, 10 is complete control) (rice; [9]) | Rice plant response rating (0 to 10 scale, 0 is no effect, 10 is complete control) (rice; [10]) | Rice plant response rating (rice; [11]) | Rice plant response rating (rice; [12]) | Plant response rating, S. Flatsedge (0 to 10 scale, 0 is no effect, 10 is complete control) (smallflower flatsedge; [9]) | S. Flatsedge plant response rating (0 to 10 scale, 0 is no effect, 10 is complete control) (smallflower flatsedge; [10]) | S. Flatsedge plant response rating (smallflower flatsedge; [11]) | S. Flatsedge plant response rating (smallflower flatsedge; [12])
